Reference: patent US20240299373A1, “IMPROVED USE OF TRADIPITANT IN MOTION SICKNESS” (Vanda Pharmaceuticals Inc., priority 2023, published 2024)
Marks after values point to notes of the source that are not given here.

Tests used:
[1] = system: apomorphine-induced emesis; assay: Emetic challenge study (apomorphine-induced emesis) in beagle dogs; assay type: in vivo, beagle dog; details: 3.0 mg/kg oral, apomorphine 0.1 mg/kg iv 2 hours later, five dogs; APO control 28
Method: Over the five (5) weeks of the study, each animal receives each of the treatments, but only one per week. The purpose of this study is to determine if tradipitant suppresses apomorphine-induced emesis.
The mid dose of tradipitant is the approximate half-log interval between the low and high doses.
All animals are dosed over a period of five (5) weeks, with each dog receiving one of five different treatments on each day of dosing.
All dogs are fasted overnight prior to each treatment day and then fed approximately one (1) hour after oral dosing (approximately one (1) hour prior to administration of apomorphine). Individual doses are adjusted weekly for changes in body weight.
The dose regimen consists of a 5×5 Latin square design, in which each subject receives 1 dose or dose combination per week (6 day washout) as shown in Table 3 below.

NK-1 receptor = target: T1, NK-1 receptor (Meriones unguiculatus, UniProt Q5DUB1); assay: NK-1 agonist (GR73632, icv)-induced foot-tapping behavior in gerbils; assay type: in vivo; details: gerbil, 1 mg/kg
T1 construct: centrally acting NK-1 receptor antagonist in vivo in the gerbil; from tissue; host or cells: brain of living Mongolian gerbils
Method: Male Mongolian gerbils (Harlan Sprague Dawley, Indianapolis, IN) weighing 26 to 40 grams are administered the selective neurokinin-1 receptor agonist GR73632 (3 pmol) via direct, vertical, free-hand intracerebroventricular (icy) injection to a depth of 4.5 mm below bregma with a cuffed 27-gauge needle attached to a 50 μl Hamilton syringe. Immediately after injection, animals are placed individually into isolated chambers with pressure-sensitive velocimeter platform floors (San Diego Instruments acoustic startle apparatus) that detect and quantify vibration. The San Diego Instruments “SR” DOS-based computer program is used on a PC to record the number of foot-taps over the following 6 to 10 minutes, beginning 30 seconds after the floor is lightly tapped. […] The total number and average intensity of events over the duration is determined. Total number of taps is analyzed with one-way ANOVA and post-hoc Dunnett's test using JMP statistical software.
A dose-response curve (with doses of 0.3, 1, 3 and 10 pmols, icy) is initially generated with the NK-1 agonist GR73632.
NK-1 antagonists are tested for their ability to attenuate GR73632-induced foot tapping. NK-1 antagonists are administered (po) via oral feeding tube at doses and time points specified in each experiment. […]
NK-1 antagonists are administered at multiple doses (at least 3; one dose per animal) and response to GR73632 is measured. […]

[2] = system: vomiting due to motion sickness; details: crossover study; cited from earlier work

T1 sequence (Q5DUB1 whole entry): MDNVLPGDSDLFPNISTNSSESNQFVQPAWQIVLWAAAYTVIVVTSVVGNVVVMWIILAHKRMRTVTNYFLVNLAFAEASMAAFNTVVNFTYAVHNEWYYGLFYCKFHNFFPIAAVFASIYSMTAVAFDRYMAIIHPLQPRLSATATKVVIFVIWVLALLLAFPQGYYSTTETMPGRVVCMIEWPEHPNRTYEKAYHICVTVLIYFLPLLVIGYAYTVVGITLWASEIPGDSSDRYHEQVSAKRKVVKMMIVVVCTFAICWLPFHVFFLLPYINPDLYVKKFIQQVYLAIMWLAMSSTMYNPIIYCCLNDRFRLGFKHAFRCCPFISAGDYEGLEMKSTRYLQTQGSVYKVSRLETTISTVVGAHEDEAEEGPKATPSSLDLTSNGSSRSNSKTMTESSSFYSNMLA

Structure (SMILES)	Total No. Emetic Episodes [1]	time after administration up to which foot-tapping behavior is inhibited (NK-1 receptor)	dogs in which occurrence of vomiting was reduced as compared to placebo [2]
C[C@@H](O[C@H]1OCCN(Cc2n[nH]c(=O)[nH]2)[C@H]1c1ccc(F)cc1)c1cc(C(F)(F)F)cc(C(F)(F)F)c1 [Aprepitant, reference compound]	1**	up to 24 hours	
COc1ccc(C(C)(C)C)cc1CN[C@H]1C2CCN(CC2)[C@H]1C(c1ccccc1)c1ccccc1 [Maropitant]			over 75%
